We go through one compound from PMC10756276, “Highly specific σ2R/TMEM97 ligand FEM-1689 alleviates neuropathic pain and inhibits the integrated stress response” (Proceedings of the National Academy of Sciences of the …, 2023).

In general, inhibition refers to the share of the control response that was lost under treatment.

One data set addresses 5HT2C (Homo sapiens, UniProt P28335). Put plainly: PDSP competitive binding assay. To be noted: 10 µM test article; read-out: Ki: primary assay inhibition of radioligand binding, 5HT2C.
Another data set has as its target D5 (Homo sapiens, UniProt P21918). Put plainly: PDSP competitive binding assay. Conditions: 10 µM test article; read-out: Ki: primary assay inhibition of radioligand binding, D5.
Another data set deals with T1, Alpha2a (Homo sapiens, UniProt P08913).
T1 construct: purchased NIMH Psychoactive Drug Screening Program (PDSP), University of North Carolina at Chapel Hill
T1 sequence (P08913 whole entry): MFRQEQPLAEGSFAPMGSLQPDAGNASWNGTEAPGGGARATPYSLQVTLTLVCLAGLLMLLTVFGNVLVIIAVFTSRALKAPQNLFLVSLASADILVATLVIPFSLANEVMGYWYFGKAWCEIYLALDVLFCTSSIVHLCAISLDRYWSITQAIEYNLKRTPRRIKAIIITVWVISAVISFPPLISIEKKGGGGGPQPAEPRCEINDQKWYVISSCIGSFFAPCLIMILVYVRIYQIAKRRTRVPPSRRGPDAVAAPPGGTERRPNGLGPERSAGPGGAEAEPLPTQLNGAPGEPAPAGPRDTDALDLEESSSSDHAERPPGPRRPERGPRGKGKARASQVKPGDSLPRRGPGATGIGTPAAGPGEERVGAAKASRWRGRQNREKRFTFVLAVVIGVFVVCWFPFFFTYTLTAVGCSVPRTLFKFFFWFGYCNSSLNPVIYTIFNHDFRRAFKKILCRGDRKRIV
Put plainly: PDSP competitive binding assay. Conditions: 10 µM test article; read-out: Ki: primary assay inhibition of radioligand binding, Alpha2a.

Another data set deals with mouse DRG neurons. In words: Neurite outgrowth, Sholl analysis. To be noted: 100 nM, wild-type neurons. In kind it is cell-based. Here is the method: Sholl analysis was performed using the Neuroanatomy plugin in ImageJ according to the authors’ recommendations ([77]). Only solitary cells were used for analysis. The area under the curve was calculated using GraphPad Prism. More details are available in SI Appendix. […]
gently layered onto 3 mL of 10% bovine serum albumin (BSA, BioPharm #71- 040-002) in HBSS in a 15 ml falcon tube. T his BSA gradient containing the cells was centrifuged at 900g for 5 min at room temperatur e.
The pellet containing the cells was resuspended in Br ainPhys media (STEMCell #05790) containing 2% […]
1% Gluta Max (Gibco # 350 5 0061). Hu man DRG ne uron s were plated a nd grown o n glass coverslips coate d with po ly-D-lysine (Sigma #P7405). C ultured D RG neurons were plated for 24 hours before being treated.
Methylglyoxal (Sigma- Aldrich #M0252) and F EM- 1689 were serially diluted in media.
Mouse samples - DRG cultures […]
anesthesia and decapitated. […]
section above with minor differences.
Mouse DRG neurons were grown in
SAS-0132 and DKR-1677 were […]
dissolved in 100% DMSO to a final concentr ation of 200mM and stored at - 20 °C. and DKR-1677 were serially diluted in media. […]
Cultured mouse DRG neur ons from wild- type and TMEM97KO animals were treated w ith either vehicle or FEM-1689 (100 nM). […] The area under the curve was calculated using Graph Pad […]

The target in the next data set is MOR (Homo sapiens, UniProt P35372). Put plainly: PDSP competitive binding assay. To be noted: 10 µM test article; read-out: Ki: primary assay inhibition of radioligand binding, MOR.
MOR, sequence (P35372 whole entry): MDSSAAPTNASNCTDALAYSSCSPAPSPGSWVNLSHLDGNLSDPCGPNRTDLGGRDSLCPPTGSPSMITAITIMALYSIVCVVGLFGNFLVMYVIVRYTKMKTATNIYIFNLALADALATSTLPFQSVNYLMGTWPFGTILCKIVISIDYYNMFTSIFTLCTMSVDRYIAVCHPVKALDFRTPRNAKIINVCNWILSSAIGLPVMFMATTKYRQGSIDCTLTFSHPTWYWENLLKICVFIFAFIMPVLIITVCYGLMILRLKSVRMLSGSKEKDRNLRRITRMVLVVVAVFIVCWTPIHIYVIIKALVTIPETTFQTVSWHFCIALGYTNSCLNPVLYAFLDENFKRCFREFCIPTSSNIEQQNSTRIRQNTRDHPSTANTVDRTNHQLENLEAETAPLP
Data set [1] deals with p-eIF2α in human DRG neurons. In words: p-eIF2α immunocytochemistry in cultured human DRG neurons. In kind it is cell-based.
Data set [2] relates to SNI model of neuropathic pain, wild-type and TMEM97KO mice. Put plainly: SNI model of neuropathic pain, von Frey mechanical hypersensitivity. Conditions: for mechanical hypersensitivity after SNI (von Frey): male and female. It counts as in vivo, mouse.
A further data set deals with D4 (Homo sapiens, UniProt P21917). In words: PDSP competitive binding assay. To be noted: 10 µM test article; read-out: Ki: primary assay inhibition of radioligand binding, D4.
D4, sequence (P21917 whole entry): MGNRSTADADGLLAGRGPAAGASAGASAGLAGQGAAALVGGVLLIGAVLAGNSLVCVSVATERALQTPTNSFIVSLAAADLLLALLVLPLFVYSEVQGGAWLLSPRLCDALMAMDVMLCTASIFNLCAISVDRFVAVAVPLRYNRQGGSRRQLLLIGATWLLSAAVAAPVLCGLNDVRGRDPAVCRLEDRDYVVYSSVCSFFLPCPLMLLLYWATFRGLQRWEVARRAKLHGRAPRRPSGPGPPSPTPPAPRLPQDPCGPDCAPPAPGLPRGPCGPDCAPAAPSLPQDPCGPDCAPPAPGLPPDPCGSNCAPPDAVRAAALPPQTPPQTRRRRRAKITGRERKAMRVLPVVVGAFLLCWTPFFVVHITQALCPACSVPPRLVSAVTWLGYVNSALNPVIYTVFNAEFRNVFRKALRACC
Another data set concerns the target 5HT1e (Homo sapiens, UniProt P28566). In words: PDSP competitive binding assay. Conditions: 10 µM test article; read-out: Ki: primary assay inhibition of radioligand binding, 5HT1e.
Data set [3] is described as follows: Pharmacokinetic parameters after IP dosing (Fig. 2). In kind it is in vivo.
The next data set deals with T2, 5HT5a (Homo sapiens, UniProt P47898).
T2 construct: purchased NIMH Psychoactive Drug Screening Program (PDSP), University of North Carolina at Chapel Hill
T2 sequence (P47898 whole entry): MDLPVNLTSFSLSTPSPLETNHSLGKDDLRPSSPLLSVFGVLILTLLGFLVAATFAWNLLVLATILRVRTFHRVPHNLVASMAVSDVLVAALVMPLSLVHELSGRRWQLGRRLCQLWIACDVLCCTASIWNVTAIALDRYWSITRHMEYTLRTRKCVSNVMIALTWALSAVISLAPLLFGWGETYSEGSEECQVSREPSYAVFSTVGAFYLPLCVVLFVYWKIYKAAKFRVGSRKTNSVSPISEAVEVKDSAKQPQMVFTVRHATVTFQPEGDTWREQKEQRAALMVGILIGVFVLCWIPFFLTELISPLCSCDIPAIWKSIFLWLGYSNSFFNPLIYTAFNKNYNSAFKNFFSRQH
Put plainly: PDSP competitive binding assay. Conditions: 10 µM test article; read-out: Ki: primary assay inhibition of radioligand binding, 5HT5a.

The next data set addresses T3, Alpha1b (Homo sapiens, UniProt P35368).
T3 construct: purchased NIMH Psychoactive Drug Screening Program (PDSP), University of North Carolina at Chapel Hill
In words: PDSP competitive binding assay. To be noted: 10 µM test article; read-out: Ki: primary assay inhibition of radioligand binding, Alpha1b.

Entries after “also recorded” stand apart in the source; their conditions may differ. Bounds are passed on as bounds.

D5, sequence (P21918 whole entry): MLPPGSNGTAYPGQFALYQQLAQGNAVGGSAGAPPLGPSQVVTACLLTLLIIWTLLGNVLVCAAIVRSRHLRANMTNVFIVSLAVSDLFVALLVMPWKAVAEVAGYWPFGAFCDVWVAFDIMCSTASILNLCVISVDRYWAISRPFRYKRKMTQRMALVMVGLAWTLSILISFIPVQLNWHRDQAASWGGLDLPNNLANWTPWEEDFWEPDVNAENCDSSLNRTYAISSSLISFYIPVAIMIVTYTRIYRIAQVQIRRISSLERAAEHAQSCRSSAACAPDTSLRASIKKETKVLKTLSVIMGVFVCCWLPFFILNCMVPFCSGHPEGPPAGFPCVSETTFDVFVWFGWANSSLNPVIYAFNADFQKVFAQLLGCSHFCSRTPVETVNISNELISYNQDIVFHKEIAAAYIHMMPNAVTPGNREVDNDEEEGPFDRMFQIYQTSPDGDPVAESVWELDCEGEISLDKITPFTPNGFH
5HT2C, sequence (P28335 33-458): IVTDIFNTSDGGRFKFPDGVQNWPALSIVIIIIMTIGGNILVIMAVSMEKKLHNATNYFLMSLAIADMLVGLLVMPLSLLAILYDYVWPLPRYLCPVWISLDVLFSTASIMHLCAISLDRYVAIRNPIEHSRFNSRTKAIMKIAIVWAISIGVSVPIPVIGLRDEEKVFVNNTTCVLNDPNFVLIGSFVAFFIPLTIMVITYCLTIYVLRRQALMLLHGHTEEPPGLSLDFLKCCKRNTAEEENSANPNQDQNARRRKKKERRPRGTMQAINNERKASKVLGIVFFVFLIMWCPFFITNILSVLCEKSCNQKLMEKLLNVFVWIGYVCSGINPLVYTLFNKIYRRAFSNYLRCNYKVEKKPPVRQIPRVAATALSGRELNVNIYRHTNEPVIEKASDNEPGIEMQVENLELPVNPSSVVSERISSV
T3 sequence (P35368 whole entry): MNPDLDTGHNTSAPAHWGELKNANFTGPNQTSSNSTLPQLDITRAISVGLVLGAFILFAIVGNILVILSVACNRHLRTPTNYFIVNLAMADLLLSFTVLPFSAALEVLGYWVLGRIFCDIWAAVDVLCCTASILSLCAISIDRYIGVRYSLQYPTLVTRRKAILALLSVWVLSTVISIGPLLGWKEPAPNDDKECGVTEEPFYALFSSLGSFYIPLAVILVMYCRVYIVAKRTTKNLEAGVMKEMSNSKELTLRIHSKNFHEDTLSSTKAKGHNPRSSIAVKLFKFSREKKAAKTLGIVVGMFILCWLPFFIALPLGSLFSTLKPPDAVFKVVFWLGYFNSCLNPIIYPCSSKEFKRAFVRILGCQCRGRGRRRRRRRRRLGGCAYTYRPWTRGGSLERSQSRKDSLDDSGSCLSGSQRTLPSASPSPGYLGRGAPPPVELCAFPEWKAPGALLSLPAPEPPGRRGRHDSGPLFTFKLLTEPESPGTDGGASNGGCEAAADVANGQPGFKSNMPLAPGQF
5HT1e, sequence (P28566 whole entry): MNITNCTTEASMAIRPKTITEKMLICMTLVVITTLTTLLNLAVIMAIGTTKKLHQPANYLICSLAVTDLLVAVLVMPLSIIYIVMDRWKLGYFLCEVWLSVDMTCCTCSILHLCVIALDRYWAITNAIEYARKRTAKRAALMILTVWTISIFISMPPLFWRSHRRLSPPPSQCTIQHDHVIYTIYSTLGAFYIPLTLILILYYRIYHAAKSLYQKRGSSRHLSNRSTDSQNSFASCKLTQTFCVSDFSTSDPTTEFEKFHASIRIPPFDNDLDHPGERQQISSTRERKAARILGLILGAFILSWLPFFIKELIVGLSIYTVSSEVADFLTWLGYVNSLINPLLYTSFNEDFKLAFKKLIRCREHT

Take `OCCCN1CC[C@@H]2C[C@H]1c1cc(-c3ccc(C(F)(F)F)cc3)ccc12` [FEM-1689]: the inhibition at 10 µM on 5HT2C, at D5, at Alpha2a, at MOR, at D4 and on 5HT1e was under 50% in each case. The inhibition at 10 µM on 5HT5a and at Alpha1b was under 50% in each case. Besides, the “neurite outgrowth (Sholl analysis)” value with mouse DRG neurons is “increase in the number and complexity of neurites in wild-type neurons; also recorded: promoted neurite outgrowth in wild-type neurons”. Further, the p-eIF2α levels entry in data set [1] (10 and 100 nM, 16 h) is listed as “significantly reduced p-eIF2α levels”. In addition, the “MGO-induced increase in p-eIF2α” value in data set [1] (cotreatment MGO 1 µM and FEM-1689 100 nM) was “prevented this increase; also recorded: prevented an increase in p-eIF2α”. In addition, the “mechanical hypersensitivity after SNI (von Frey)” value in [2] (single 10 mg/kg IV, 30 d after SNI, wild-type and TMEM97KO, 7 d, 10 mg/kg) is recorded as “little or no change for mechanical sensitivity in either group; also recorded: not sufficient to reduce mechanical hypersensitivity”; in data set [2] (single 20 mg/kg IV, TMEM97KO mice, 20 mg/kg) it was “failed to reduce mechanical hypersensitivity”; in [2] (single 20 mg/kg IV, wild-type mice, 20 mg/kg), “effectively reversed mechanical hypersensitivity; also recorded: maximal antinociceptive effect”. In addition, the “duration of reversal of mechanical hypersensitivity” value in data set [2] (single 20 mg/kg IV, wild-type mice) is “roughly 4 d”. The “brain to plasma ratio (AUClast)” value in [3] (IP) stood at 20.5. For the same compound, the “Cmax (IP)” value was 10916 ng/mL in [3] (brain, IP) and 508 ng/mL in data set [3] (plasma, IP). The t1/2 (IP) in data set [3] (brain, IP) came to 11.4 h; in [3] (plasma, IP), 21.7 h. Also, in data set [3] (pharmacokinetic experiments, Fig. 2), the brain entry entry is “readily enters the brain”.
